US10392368B2, “Pyrazolo and triazolo bicyclic compounds as JAK kinase inhibitors” (THERAVANCE BIOPHARMA R&D IP, LLC, priority 2017, dated 2019)
Where two headings read alike, the source gives them in different places.

Key:
JAK3 = molecular target: T1, JAK3 (Homo sapiens, UniProt P52333); experiment: Biochemical JAK3 kinase assay (LanthaScreen); parameters: GST; purchased Life Technologies; settings: for Ki: read-out: JAK 3 (pKi) (converted)
T1 sequence (P52333 1-1124): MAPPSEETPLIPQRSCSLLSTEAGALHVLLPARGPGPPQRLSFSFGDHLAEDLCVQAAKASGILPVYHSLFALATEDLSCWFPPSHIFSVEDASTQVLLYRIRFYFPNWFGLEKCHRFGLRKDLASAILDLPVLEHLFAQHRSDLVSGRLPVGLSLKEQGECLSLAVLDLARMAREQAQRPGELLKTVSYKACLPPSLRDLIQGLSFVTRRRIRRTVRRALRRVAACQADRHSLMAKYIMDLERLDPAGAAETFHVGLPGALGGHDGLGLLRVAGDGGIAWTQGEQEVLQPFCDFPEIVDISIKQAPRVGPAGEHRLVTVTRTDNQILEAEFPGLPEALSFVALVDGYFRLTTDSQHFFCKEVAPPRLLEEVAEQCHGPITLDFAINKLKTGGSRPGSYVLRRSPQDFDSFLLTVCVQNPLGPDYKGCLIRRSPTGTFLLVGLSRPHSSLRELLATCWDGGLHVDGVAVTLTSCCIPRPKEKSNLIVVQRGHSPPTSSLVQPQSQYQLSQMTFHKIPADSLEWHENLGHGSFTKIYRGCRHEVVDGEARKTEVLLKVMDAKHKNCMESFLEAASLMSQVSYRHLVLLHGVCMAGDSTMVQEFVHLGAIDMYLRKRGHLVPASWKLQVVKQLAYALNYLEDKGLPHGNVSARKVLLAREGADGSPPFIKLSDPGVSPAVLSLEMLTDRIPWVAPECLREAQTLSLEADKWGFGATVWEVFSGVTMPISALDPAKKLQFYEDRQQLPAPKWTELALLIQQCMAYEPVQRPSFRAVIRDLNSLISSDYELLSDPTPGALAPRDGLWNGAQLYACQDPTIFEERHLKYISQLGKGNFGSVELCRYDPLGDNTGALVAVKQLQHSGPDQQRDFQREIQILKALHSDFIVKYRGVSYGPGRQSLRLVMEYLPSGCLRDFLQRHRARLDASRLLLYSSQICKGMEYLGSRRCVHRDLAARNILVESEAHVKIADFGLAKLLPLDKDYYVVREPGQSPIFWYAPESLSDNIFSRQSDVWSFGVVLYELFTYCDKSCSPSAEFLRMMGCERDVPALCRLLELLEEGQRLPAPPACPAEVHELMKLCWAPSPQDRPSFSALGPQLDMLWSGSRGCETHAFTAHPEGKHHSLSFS
Outline: (§1)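 TR-FRET read-out: terbium anti-pSTAT1 (pTyr701) antibody, 2 nM, with 10 mM EDTA quench, emission ratio 520/495 nm. GST-JAK phosphorylates GFP-STAT1 peptide for 1 h at ambient temperature after 1 h compound pre-incubation. pIC50 from dose-response converted to pKi by Cheng-Prusoff.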

JAK1 = molecular target: T2, JAK1 (Homo sapiens, UniProt P23458); experiment: Biochemical JAK1 kinase assay (LanthaScreen); settings: for Ki: read-out: JAK 1 (pKi) (converted)
T2 construct: GST; purchased Life Technologies
Outline: as §1

[1] = tested on: IL-2 stimulated pSTAT5 in Tall-1 T cells; experiment: Cellular JAK3 potency assay: inhibition of IL-2 stimulated pSTAT5 in Tall-1 T cells; assay type: cell-based, human; settings: for IC50: Homo sapiens, read-out: Tall-1 (pIC50) (converted)
Outline: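 Inhibition of IL-2-induced pSTAT5 was quantified by AlphaLisa in Tall-1 cell lysates. Compound exposure lasted 1 h before 30 min stimulation with 300 ng/ml IL-2 final.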

Tyk2 = molecular target: T3, Tyk2 (Homo sapiens, UniProt P29597); experiment: Biochemical Tyk2 kinase assay (LanthaScreen); settings: for Ki: read-out: Tyk 2 (pKi) (converted)
T3 construct: GST; purchased Life Technologies
Outline: as §1

JAK2 = molecular target: T4, JAK2 (Homo sapiens, UniProt O60674); experiment: Biochemical JAK2 kinase assay (LanthaScreen); settings: for Ki: read-out: JAK 2 (pKi) (converted)
T4 construct: GST; purchased Life Technologies
Outline: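 pKi values derive from pIC50 via Cheng-Prusoff, with IC50 from a 4-parameter fit of percent-inhibition TR-FRET data using Tb-anti-pSTAT1 (pTyr701) detection. Compound, GST-JAK2 and GFP-STAT1 substrate were pre-incubated 1 h, then ATP started a 1 h ambient reaction (HEPES pH 7.5, 10 mM MgCl2, 1% DMSO).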

[2] = selectivity: difference of pKi JAK3 and pKi JAK1
[3] = IL-2 stimulated pSTAT5 in Tall-1 T cells
[4] = selectivity JAK3 over JAK1, difference of pKi
[5] = TALL-1, IL-2 stimulated pSTAT5, Tall-1 T cells
[6] = IL-2 stimulated pSTAT5, Tall-1 T cells
[7] = TALL-1, IL-2 stimulated pSTAT5 in Tall-1 T cells

T2 sequence (P23458 whole entry): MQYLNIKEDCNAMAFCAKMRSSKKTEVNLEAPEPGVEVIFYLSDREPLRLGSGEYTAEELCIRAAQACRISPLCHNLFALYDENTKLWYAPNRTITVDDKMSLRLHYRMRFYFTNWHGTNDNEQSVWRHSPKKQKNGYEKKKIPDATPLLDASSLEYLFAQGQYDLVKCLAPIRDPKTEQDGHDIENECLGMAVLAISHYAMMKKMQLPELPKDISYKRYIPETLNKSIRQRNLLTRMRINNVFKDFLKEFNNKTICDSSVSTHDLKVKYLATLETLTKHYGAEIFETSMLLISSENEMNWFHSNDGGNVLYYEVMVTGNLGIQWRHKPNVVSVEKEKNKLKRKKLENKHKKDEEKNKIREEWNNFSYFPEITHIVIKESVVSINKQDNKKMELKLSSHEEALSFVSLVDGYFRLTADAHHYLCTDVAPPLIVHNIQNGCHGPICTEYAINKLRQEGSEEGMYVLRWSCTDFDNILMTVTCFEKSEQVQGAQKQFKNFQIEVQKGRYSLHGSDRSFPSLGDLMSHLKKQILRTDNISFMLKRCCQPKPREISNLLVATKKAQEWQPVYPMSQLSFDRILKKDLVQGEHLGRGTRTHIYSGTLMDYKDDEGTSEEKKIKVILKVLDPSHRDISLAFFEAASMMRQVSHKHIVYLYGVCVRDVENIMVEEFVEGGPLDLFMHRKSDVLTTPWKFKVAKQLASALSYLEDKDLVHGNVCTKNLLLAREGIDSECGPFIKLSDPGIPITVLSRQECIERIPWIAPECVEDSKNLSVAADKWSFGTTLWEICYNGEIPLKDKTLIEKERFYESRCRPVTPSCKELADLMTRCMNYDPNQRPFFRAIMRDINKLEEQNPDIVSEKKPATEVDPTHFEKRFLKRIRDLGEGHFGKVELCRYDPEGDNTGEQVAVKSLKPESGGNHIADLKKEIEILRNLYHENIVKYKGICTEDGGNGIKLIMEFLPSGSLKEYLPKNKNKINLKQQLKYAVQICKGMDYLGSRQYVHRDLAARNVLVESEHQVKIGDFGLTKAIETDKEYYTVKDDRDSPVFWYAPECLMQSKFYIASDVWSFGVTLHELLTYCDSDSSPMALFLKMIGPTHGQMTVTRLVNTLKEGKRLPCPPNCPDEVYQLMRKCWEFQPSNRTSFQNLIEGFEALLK
T3 sequence (P29597 whole entry): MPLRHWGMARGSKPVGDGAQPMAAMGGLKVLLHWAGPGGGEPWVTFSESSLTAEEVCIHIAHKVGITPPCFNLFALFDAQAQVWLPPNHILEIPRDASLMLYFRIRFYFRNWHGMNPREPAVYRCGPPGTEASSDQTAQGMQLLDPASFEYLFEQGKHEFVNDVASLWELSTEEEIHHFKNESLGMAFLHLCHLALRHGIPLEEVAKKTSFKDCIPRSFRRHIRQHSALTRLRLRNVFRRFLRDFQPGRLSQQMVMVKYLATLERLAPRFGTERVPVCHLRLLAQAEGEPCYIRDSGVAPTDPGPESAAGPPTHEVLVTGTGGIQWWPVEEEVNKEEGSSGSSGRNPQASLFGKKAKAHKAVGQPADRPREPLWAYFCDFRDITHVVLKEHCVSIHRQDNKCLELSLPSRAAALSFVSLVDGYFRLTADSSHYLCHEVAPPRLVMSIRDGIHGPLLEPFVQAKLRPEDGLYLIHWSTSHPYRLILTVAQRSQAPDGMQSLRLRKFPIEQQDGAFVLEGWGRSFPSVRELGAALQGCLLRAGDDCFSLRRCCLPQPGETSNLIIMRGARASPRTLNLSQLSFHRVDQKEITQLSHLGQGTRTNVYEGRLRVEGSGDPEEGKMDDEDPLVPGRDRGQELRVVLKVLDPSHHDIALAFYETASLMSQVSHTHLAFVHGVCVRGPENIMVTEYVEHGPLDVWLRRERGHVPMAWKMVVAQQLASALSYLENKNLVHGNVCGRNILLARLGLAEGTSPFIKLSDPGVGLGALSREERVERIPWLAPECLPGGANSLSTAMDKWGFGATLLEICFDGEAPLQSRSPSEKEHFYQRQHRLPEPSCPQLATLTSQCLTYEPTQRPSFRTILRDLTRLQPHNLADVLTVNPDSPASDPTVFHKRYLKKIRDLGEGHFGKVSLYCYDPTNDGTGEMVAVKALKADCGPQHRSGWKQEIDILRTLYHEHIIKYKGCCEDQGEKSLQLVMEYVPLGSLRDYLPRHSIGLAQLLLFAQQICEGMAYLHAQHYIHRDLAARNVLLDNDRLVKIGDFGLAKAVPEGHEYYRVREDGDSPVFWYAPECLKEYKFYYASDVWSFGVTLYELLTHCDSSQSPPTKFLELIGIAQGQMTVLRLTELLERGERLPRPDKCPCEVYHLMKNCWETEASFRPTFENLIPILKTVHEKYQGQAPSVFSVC
T4 sequence (O60674 whole entry): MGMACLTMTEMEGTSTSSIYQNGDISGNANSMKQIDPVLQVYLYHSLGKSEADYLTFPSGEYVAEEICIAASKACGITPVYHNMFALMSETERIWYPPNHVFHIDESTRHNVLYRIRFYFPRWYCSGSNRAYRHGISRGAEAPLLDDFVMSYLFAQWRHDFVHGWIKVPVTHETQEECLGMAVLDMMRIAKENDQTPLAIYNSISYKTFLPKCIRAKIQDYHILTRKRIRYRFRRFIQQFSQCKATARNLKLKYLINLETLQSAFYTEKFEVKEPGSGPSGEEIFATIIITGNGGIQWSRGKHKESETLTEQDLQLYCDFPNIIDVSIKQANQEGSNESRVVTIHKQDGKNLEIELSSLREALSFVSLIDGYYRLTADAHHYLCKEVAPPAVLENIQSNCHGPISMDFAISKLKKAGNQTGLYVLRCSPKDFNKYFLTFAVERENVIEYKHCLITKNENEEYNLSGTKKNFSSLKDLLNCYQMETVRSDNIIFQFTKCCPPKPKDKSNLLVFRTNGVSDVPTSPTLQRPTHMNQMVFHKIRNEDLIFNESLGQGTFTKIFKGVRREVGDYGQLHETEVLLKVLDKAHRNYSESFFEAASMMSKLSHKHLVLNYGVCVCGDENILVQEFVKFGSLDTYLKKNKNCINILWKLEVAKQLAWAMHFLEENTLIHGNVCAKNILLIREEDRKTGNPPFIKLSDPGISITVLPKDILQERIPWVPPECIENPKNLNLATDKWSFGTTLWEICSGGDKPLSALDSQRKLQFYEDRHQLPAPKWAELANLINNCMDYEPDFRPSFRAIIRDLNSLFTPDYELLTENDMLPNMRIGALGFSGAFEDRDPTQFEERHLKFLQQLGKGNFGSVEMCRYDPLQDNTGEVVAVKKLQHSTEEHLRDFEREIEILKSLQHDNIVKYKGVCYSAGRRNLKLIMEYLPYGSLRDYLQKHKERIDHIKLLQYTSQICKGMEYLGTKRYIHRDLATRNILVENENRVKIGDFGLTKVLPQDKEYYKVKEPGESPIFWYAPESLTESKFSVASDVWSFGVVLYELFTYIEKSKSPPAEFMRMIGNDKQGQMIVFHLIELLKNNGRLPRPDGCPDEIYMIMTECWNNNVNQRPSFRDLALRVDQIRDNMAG

| Structure (SMILES) | JAK 3 (pKi) (JAK3) | JAK3 (pKi)-JAK1 (pKi) (JAK3; [2]) | JAK 1 (pKi) (JAK1) | Tall-1 (pIC50) [1, 3] | Tyk 2 (pKi) (Tyk2) | JAK 2 (pKi) (JAK2) | Ki (JAK3) [nM] | JAK3 (pKi)-JAK1 (pKi) (JAK3; [4]) | Ki (JAK1) [nM] | IC50 [1, 5] [nM] | Ki (Tyk2) [nM] | Ki (JAK2) [nM] | Tall-1 (pIC50) [1, 6] | IC50 [1, 7] [nM] |
| --- | --- | --- | --- | --- | --- | --- | --- | --- | --- | --- | --- | --- | --- | --- |
| C=CC(=O)N1CC(CC)(COc2cc(-c3ccc(O)c(Cl)c3)nc3[nH]ncc23)C1 [Compound 3-69] | A (a pKi value≥10 (Ki≤0.1 nM)) | A (a value of 3 or above) | E (a pKi value of 7 or below (Ki of 100 nM or above)) | B (a pIC50 value between 6.7 (included) and 7.5 (IC50 between 200 nM and 32 nM)) | E (a pKi value of 7 or below (Ki of 100 nM or above)) | E (a pKi value of 7 or below (Ki of 100 nM or above)) | – | – | – | – | – | – | – | – |
| C=CC(=O)N1CC(COc2cc(-c3ccc(O)c(C)c3)cc3[nH]ncc23)C1 [Compound 18-9] | – | – | – | – | – | – | < 0.1 | A (a value of 3 or above) | > 100 | < 31.6 | > 100 | > 100 | – | – |
| CN(C)C/C=C/C(=O)N1CC(CSc2cc(-c3ccc(O)cc3)cc3[nH]ncc23)C1 [Compound 13-4] | A (a pKi value≥10 (Ki≤0.1 nM)) | – | E (a pKi value of 7 or below (Ki of 100 nM or above)) | – | E (a pKi value of 7 or below (Ki of 100 nM or above)) | D (a pKi value between 7 and 8 (Ki between 100 nM and 10 nM)) | – | A (a value of 3 or above) | – | – | – | – | B (a pIC50 value between 6.7 (included) and 7.5 (IC50 between 200 nM and 32 nM)) | – |
| C=CC(=O)N1C[C@@H](Oc2cc(-c3ccc(O)cc3)cc3[nH]ncc23)C[C@H]1C [Compound 1-11] | – | A (a value of 3 or above) | – | – | – | – | < 0.1 | – | > 100 | – | > 100 | > 100 | – | < 31.6 |
| C=CC(=O)N1C[C@@H](Oc2cc(-c3ccc(O)cc3)cc3[nH]ncc23)CC[C@@H]1C [Compound 12-33] | – | – | – | – | – | – | 0.1 to 1 | A (a value of 3 or above) | > 100 | 31.6 to 200 | > 100 | > 100 | – | – |
| C=CC(=O)N1CC(S(=O)(=O)c2cc(-c3ccc(O)cc3)cc3[nH]ncc23)C1 [Compound 12-50] | – | – | – | – | – | – | < 0.1 | A (a value of 3 or above) | > 100 | 31.6 to 200 | > 100 | > 100 | – | – |
| C=CC(=O)N1CC2(CC(Oc3nc(-c4ccc(O)c(F)c4)nc4[nH]ncc34)C2)C1 [Compound 15-10] | A (a pKi value≥10 (Ki≤0.1 nM)) | – | E (a pKi value of 7 or below (Ki of 100 nM or above)) | – | E (a pKi value of 7 or below (Ki of 100 nM or above)) | E (a pKi value of 7 or below (Ki of 100 nM or above)) | – | A (a value of 3 or above) | – | – | – | – | A (a pIC50 value≥7.5 (IC50≤32 nM)) | – |
| C=CC(=O)N1CC(CC)(COc2nc(-c3ccc(O)c(F)c3)cc3[nH]ncc23)C1 [Compound 3-101] | A (a pKi value≥10 (Ki≤0.1 nM)) | A (a value of 3 or above) | E (a pKi value of 7 or below (Ki of 100 nM or above)) | A (a pIC50 value≥7.5 (IC50≤32 nM)) | E (a pKi value of 7 or below (Ki of 100 nM or above)) | D (a pKi value between 7 and 8 (Ki between 100 nM and 10 nM)) | – | – | – | – | – | – | – | – |
| CN(C)C/C=C/C(=O)N1CC(OCc2cc(-c3ccc(O)c(F)c3)cc3[nH]ncc23)C1 [Compound 16-7] | A (a pKi value≥10 (Ki≤0.1 nM)) | – | E (a pKi value of 7 or below (Ki of 100 nM or above)) | – | E (a pKi value of 7 or below (Ki of 100 nM or above)) | E (a pKi value of 7 or below (Ki of 100 nM or above)) | – | A (a value of 3 or above) | – | – | – | – | B (a pIC50 value between 6.7 (included) and 7.5 (IC50 between 200 nM and 32 nM)) | – |
| CN(C)C/C=C/C(=O)N1CCC(C)(Oc2cc(-c3ccc(O)c(Cl)c3)cc3[nH]ncc23)CC1 [Compound 6-4] | – | – | – | – | – | – | < 0.1 | A (a value of 3 or above) | > 100 | 31.6 to 200 | > 100 | 10 to 100 | – | – |
| C=CC(=O)N1CCC(COc2cc(-c3ccc(O)c(F)c3)nc3[nH]ncc23)CC1 [Compound 14-9] | B (a pKi value between 9 and 10 (Ki between 1 nM and 0.1 nM)) | – | E (a pKi value of 7 or below (Ki of 100 nM or above)) | – | E (a pKi value of 7 or below (Ki of 100 nM or above)) | E (a pKi value of 7 or below (Ki of 100 nM or above)) | – | A (a value of 3 or above) | – | – | – | – | B (a pIC50 value between 6.7 (included) and 7.5 (IC50 between 200 nM and 32 nM)) | – |
| COCCN(C/C=C/C(=O)N1CC(COc2cc(-c3ccc(O)cc3)cc3[nH]ncc23)C1)CCOC [Compound 3-120] | – | A (a value of 3 or above) | – | – | – | – | < 0.1 | – | > 100 | – | > 100 | 10 to 100 | – | 31.6 to 200 |
| CN(C)C/C=C/C(=O)N1CC(OCc2cc(-c3ccc(O)cc3)cc3[nH]ncc23)C1 [Compound 12-38] | – | – | – | – | – | – | < 0.1 | A (a value of 3 or above) | > 100 | 31.6 to 200 | > 100 | > 100 | – | – |
| C=CC(=O)N1C2CCC1CC(Oc1cc(-c3ccc(O)cc3)cc3[nH]ncc13)C2 (stereo not drawn) [Compound 10-2] | A (a pKi value≥10 (Ki≤0.1 nM)) | – | D (a pKi value between 7 and 8 (Ki between 100 nM and 10 nM)) | – | D (a pKi value between 7 and 8 (Ki between 100 nM and 10 nM)) | C (a pKi value between 8 and 9 (Ki between 10 nM and 1 nM)) | – | B (a value of 2.3 to 3) | – | – | – | – | A (a pIC50 value≥7.5 (IC50≤32 nM)) | – |
| CCC1(COc2nc(-c3ccc(O)c(F)c3)cc3[nH]ncc23)CN(C(=O)/C=C/CN(C)C)C1 [Compound 3-100] | B (a pKi value between 9 and 10 (Ki between 1 nM and 0.1 nM)) | A (a value of 3 or above) | E (a pKi value of 7 or below (Ki of 100 nM or above)) | A (a pIC50 value≥7.5 (IC50≤32 nM)) | E (a pKi value of 7 or below (Ki of 100 nM or above)) | E (a pKi value of 7 or below (Ki of 100 nM or above)) | – | – | – | – | – | – | – | – |
| CN(C)C/C=C/C(=O)N1CC(OCc2cc(-c3ccc(O)c(Cl)c3)cc3[nH]ncc23)C1 [Compound 16-1] | A (a pKi value≥10 (Ki≤0.1 nM)) | – | E (a pKi value of 7 or below (Ki of 100 nM or above)) | – | E (a pKi value of 7 or below (Ki of 100 nM or above)) | E (a pKi value of 7 or below (Ki of 100 nM or above)) | – | A (a value of 3 or above) | – | – | – | – | B (a pIC50 value between 6.7 (included) and 7.5 (IC50 between 200 nM and 32 nM)) | – |
